ChEMBL document CHEMBL1909046, “DrugMatrix in vitro pharmacology data”

How the values were obtained:
[1] = target: T1, C-C chemokine receptor type 4 (Homo sapiens, UniProt P51679); type: cell membranes, Membrane; settings: chem-1; note: in other assays of this panel Not Active means under 50% inhibition at 10 µM
T1 sequence (P51679 whole entry): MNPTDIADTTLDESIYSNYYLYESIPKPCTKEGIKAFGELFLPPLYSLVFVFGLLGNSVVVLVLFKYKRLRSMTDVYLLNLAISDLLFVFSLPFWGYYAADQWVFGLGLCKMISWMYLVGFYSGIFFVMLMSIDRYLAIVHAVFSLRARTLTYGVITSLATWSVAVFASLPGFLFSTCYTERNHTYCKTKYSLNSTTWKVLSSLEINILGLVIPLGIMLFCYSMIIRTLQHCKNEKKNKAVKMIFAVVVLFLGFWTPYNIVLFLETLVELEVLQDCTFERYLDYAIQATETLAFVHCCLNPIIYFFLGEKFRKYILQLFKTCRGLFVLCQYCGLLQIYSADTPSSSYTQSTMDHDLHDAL

[2] = target: T2, Cysteinyl leukotriene receptor 1 (Homo sapiens, UniProt Q9Y271); type: cell membranes, CHO-K1, Membrane; settings: cho-k1; note: in other assays of this panel Not Active means under 50% inhibition at 10 µM
T2 sequence (Q9Y271 whole entry): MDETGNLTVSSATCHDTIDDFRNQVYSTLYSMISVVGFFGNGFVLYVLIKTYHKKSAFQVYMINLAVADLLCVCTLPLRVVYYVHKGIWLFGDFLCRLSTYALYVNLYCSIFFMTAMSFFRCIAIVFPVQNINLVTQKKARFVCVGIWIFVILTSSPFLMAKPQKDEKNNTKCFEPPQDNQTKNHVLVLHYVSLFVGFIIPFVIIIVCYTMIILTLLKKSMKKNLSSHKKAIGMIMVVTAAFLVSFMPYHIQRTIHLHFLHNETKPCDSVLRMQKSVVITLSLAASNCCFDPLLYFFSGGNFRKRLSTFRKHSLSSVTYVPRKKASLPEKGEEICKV

[3] = target: T3, Polyunsaturated fatty acid lipoxygenase ALOX15 (Oryctolagus cuniculus, UniProt P12530); assay: biochemical; type: tissue-based, Reticulocytes; settings: reticulocytes;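 note: inhibition of 15-lipoxygenase enzyme activity measured with linoleic acid as the substrate; in other assays of this panel Not Active means under 50% inhibition at 10 µM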
T3 sequence (P12530 whole entry): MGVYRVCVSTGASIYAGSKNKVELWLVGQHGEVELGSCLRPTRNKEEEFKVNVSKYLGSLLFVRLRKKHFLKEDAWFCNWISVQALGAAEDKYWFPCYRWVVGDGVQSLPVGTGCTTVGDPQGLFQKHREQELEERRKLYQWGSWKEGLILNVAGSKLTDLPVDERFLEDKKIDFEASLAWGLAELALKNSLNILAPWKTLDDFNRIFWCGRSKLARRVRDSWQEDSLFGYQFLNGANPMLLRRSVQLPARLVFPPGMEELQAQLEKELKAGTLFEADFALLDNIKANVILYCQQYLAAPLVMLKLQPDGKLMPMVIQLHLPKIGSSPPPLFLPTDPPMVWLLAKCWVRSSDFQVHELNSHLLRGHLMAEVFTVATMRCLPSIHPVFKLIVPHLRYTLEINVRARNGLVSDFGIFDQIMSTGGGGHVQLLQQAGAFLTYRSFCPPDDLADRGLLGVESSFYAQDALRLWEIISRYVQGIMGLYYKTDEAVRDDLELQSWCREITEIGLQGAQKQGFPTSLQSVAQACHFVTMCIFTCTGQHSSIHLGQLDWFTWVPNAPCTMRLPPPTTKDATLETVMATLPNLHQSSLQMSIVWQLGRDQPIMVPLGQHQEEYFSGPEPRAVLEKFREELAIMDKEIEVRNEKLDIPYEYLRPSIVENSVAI

[4] = target: Melanocortin receptor 5 (Homo sapiens, UniProt P33032); type: cell membranes, HEK293, Membrane; settings: hek293; note: in other assays of this panel Not Active means under 50% inhibition at 10 µM
Sequence of Melanocortin receptor 5 (P33032 whole entry): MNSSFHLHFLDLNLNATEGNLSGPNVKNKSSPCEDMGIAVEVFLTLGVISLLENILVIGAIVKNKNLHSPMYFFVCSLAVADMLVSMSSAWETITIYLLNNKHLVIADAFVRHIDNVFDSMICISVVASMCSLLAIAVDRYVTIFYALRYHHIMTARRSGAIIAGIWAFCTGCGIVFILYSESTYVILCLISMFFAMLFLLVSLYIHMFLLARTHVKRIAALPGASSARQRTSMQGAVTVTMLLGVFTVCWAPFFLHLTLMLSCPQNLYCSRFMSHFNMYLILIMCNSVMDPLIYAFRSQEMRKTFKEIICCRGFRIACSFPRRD

[5] = target: T4, Nitric oxide synthase, inducible (Mus musculus, UniProt P29477); parameters: species or system Escherichia coli
T4 sequence (P29477 whole entry): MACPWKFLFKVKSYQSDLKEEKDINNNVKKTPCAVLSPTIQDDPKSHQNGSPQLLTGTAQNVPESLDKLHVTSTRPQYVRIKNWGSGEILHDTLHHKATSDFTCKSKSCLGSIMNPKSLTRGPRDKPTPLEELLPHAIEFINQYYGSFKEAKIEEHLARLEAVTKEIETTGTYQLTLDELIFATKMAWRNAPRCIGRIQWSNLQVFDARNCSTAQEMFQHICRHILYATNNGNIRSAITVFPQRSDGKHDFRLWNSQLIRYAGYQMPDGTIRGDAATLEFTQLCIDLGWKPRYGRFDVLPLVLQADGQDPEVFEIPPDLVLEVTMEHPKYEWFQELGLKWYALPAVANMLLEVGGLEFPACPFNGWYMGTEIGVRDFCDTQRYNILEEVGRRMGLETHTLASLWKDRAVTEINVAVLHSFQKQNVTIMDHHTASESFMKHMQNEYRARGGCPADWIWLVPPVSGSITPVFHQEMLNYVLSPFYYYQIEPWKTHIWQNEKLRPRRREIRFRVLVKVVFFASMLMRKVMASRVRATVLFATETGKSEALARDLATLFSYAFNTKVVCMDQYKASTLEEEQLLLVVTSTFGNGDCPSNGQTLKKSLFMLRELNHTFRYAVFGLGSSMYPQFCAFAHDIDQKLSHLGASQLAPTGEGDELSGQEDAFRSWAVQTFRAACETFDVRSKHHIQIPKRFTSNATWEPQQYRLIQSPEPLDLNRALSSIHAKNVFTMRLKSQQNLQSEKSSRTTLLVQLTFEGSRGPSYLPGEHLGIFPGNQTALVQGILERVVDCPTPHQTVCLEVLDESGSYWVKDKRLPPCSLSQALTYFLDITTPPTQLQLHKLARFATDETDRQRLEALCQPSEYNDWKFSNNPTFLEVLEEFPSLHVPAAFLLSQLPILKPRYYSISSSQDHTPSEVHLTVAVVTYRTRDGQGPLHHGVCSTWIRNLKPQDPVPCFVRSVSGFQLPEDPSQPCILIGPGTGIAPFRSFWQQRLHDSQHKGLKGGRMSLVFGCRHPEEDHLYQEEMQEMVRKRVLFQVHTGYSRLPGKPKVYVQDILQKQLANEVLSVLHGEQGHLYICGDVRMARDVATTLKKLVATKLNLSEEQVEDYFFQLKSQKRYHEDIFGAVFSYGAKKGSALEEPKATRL

[6] = target: Mu-type opioid receptor (Homo sapiens, UniProt P35372); assay: DRUGMATRIX: Opiate mu (OP3, MOP) radioligand binding (ligand: [3H] Diprenorphine); type: cell membranes, CHO-K1, Membrane; settings: cho-k1; Not Active = under 50% inhibition at 10 µM
Sequence of Mu-type opioid receptor (P35372 whole entry): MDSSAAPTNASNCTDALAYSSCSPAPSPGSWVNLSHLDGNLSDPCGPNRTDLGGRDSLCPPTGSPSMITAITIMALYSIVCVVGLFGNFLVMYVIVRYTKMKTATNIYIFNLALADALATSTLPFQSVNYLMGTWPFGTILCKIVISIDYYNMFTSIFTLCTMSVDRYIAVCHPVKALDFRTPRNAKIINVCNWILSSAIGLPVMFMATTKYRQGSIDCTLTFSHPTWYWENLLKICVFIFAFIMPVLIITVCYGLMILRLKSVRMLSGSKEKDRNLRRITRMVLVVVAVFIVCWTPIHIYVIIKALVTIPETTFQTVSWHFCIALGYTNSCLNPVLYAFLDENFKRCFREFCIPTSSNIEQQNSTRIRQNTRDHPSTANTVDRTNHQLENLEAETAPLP

[7] = DRUGMATRIX: Phorbol Ester radioligand binding (ligand: [3H] PDBu); type: cell membranes, Mus musculus, ICR, Brain, Membrane; settings: Not Active = under 50% inhibition at 10 µM
[8] = target: Protein phosphatase 3 catalytic subunit alpha (Homo sapiens, UniProt Q08209); parameters: species or system Escherichia coli
[9] = DRUGMATRIX: Purinergic P2X radioligand binding (ligand: [3H] alpha, beta-Methylene-ATP); type: cell membranes, Oryctolagus cuniculus, New Zealand albino, Urinary bladder, Membrane; settings: Not Active = under 50% inhibition at 10 µM

C/C=C1\[C@H]2C=C(C)C[C@]1(N)c1ccc(=O)[nH]c1C2 [HUPERZINE A]
Not Active: IC50 [1] | IC50 [2] | IC50 [3] | IC50 [4] | IC50 [5] | IC50 [6] | IC50 [7] | Ki [7] | IC50 [8] | IC50 [9] | Ki [9]

NS(=O)(=O)c1cc2c(cc1Cl)NCNS2(=O)=O [HYDROCHLOROTHIAZIDE]
Not Active: IC50 [1] | IC50 [2] | IC50 [3] | IC50 [4] | IC50 [5] | IC50 [6] | IC50 [7] | Ki [7] | IC50 [8] | IC50 [9] | Ki [9]

O=P1(NCCCl)OCCCN1CCCl (centres undefined) [IFOSFAMIDE]
Not Active: IC50 [1] | IC50 [2] | IC50 [3] | IC50 [4] | IC50 [5] | IC50 [6] | IC50 [7] | Ki [7] | IC50 [8] | IC50 [9] | Ki [9]

CN1CCC[C@H]1c1cccnc1 [NICOTINE]
Not Active: IC50 [1] | IC50 [2] | IC50 [3] | IC50 [4] | IC50 [5] | IC50 [6] | IC50 [7] | Ki [7] | IC50 [8] | IC50 [9] | Ki [9]

O=C1CN=C(c2ccccc2)c2cc([N+](=O)[O-])ccc2N1 [NITRAZEPAM]
Not Active: IC50 [1] | IC50 [2] | IC50 [3] | IC50 [4] | IC50 [5] | IC50 [6] | IC50 [7] | Ki [7] | IC50 [8] | IC50 [9] | Ki [9]

CNCCC=C1c2ccccc2CCc2ccccc21 [NORTRIPTYLINE]
Not Active: IC50 [1] | IC50 [2] | IC50 [3] | IC50 [4] | IC50 [5] | IC50 [6] | IC50 [7] | Ki [7] | IC50 [8] | IC50 [9] | Ki [9]

CC1COc2c(N3CCN(C)CC3)c(F)cc3c(=O)c(C(=O)O)cn1c23 (centres undefined) [OFLOXACIN]
Not Active: IC50 [1] | IC50 [2] | IC50 [3] | IC50 [4] | IC50 [5] | IC50 [6] | IC50 [7] | Ki [7] | IC50 [8] | IC50 [9] | Ki [9]

Oc1cccc2cccnc12 [OXYQUINOLINE]
Not Active: IC50 [1] | IC50 [2] | IC50 [3] | IC50 [4] | IC50 [5] | IC50 [6] | IC50 [7] | Ki [7] | IC50 [8] | IC50 [9] | Ki [9]

CN(C)[C@@H]1C(O)=C(C(N)=O)C(=O)[C@@]2(O)C(O)=C3C(=O)c4c(O)cccc4[C@@](C)(O)[C@H]3[C@H](O)[C@@H]12 [OXYTETRACYCLINE]
Not Active: IC50 [1] | IC50 [2] | IC50 [3] | IC50 [4] | IC50 [5] | IC50 [6] | IC50 [7] | Ki [7] | IC50 [8] | IC50 [9] | Ki [9]
